Measured values published in US20190239509A1, “METHOD OF CONTROLLING PLANTS” (SYNGENTA PARTICIPATIONS AG, priority 2016, published 2019).

Key:
Format in all cases: in vivo
[1] = system: Digitaria horizontalis (DIGHO); test: B3 drilled field trial Brazil, post-emergence, DIGHO; details: 28 days after application
Procedure: (§1) Seeds of a variety of test species were used in drilled field trials to look at the control of important weed species present in corn crops as well as the effect on soybean (a volunteer crop in corn). Trials were carried out in Brazil in the summer season and the second season.
(§2) Plot size was 10-15 m^2, and two replicates were carried out per treatment. Plants were treated post-emergence between the 2 and 4 leaf stage. Species tested were Amaranthus retroflexus (AMARE), Ipomoea grandifolia (IAQGR), Digitaria horizontalis (DIGHO), Bidens pilosa (BIDPI), Eleusine indica (ELEIN), Brachiaria decumbens (BRADC), Centrus echinatus (CCHEC), Euphorbia heterophylla (EPPHL), Brachiaria plantaginea (BRAPL) and Glycine max (GLXMA; soybean). Fungicides and insecticides were used as necessary for plant health. The test was evaluated at 28 days after application with 100=total damage to plant and 0=no damage to plant.
(§3) Expected results were calculated using the Colby Formula.

[2] = system: Euphorbia heterophylla (EPPHL); test: B2 drilled field trial Brazil, post-emergence, EPPHL; details: 100=total damage, 0=no damage; for EPPHL 7DAA Observed: 7 days after application; for EPPHL 30 DAA Observed: 30 days after application
Procedure: (§4) Seeds of a variety of test species were used in drilled field trials to look at the control of important weed species present in corn crops as well as the effect on soybean (a volunteer crop in corn). Trials were carried out in Brazil in the summer season.
(§5) Plot size was 10-12 m^2, and two replicates were carried out per treatment. Plants were treated post-emergence at the 4 leaf stage. Fungicides and insecticides were used as necessary for plant health. The test was evaluated at 7 and 30 days after application (Amaranthus viridis (AMAVI), Bidens pilosa (BIDPI), Euphorbia heterophylla (EPPHL)) and 9 and 37 days after application (Brachiaria plantaginea (BRAPL) and soybean (Glycine max GLXMA) with 100=total damage to plant and 0=no damage to plant.
as §3

Eleusine indica (ELEIN) = test: B3 drilled field trial Brazil, post-emergence, ELEIN; details: 28 days after application
Procedure: as §1, §2, §3

[3] = system: Ipomoea grandifolia (IAQGR); test: B3 drilled field trial Brazil, post-emergence, IAQGR; details: 28 days after application
Procedure: as §1, §2, §3

[4] = system: soybean (Glycine max GLXMA); test: B2 drilled field trial Brazil, post-emergence, soybean; details: 100=total damage, 0=no damage; for GLXMA 9DAA Observed: 9 days after application; for GLXMA 37 DAA Observed: 37 days after application
Procedure: as §4, §5, §3

[5] = system: Amaranthus viridis (AMAVI); test: B2 drilled field trial Brazil, post-emergence, AMAVI; details: 100=total damage, 0=no damage; for AMAVI 7DAA Observed: 7 days after application; for AMAVI 30 DAA Observed: 30 days after application
Procedure: as §4, §5, §3

[6] = system: Centrus echinatus (CCHEC); test: B3 drilled field trial Brazil, post-emergence, CCHEC; details: 28 days after application
Procedure: as §1, §2, §3

[7] = system: Euphorbia heterophylla (EPPHL); test: B3 drilled field trial Brazil, post-emergence, EPPHL; details: Summer season, 28 days after application
Procedure: as §1, §2, §3

[8] = system: Glycine max (GLXMA; soybean); test: B3 drilled field trial Brazil, post-emergence, soybean; details: 28 days after application
Procedure: as §1, §2, §3

Bidens pilosa (BIDPI) [9] = test: B2 drilled field trial Brazil, post-emergence, BIDPI; details: 100=total damage, 0=no damage; for BIDPI 7DAA Observed: 7 days after application; for BIDPI 30 DAA Observed: 30 days after application
Procedure: as §4, §5, §3

[10] = system: Amaranthus retroflexus (AMARE); test: B3 drilled field trial Brazil, post-emergence, AMARE; details: 28 days after application, 100=total damage, 0=no damage
Procedure: as §1, §2, §3

Bidens pilosa (BIDPI) [11] = test: B3 drilled field trial Brazil, post-emergence, BIDPI; details: 28 days after application
Procedure: as §1, §2, §3

[12] = system: Brachiaria plantaginea (BRAPL); test: B2 drilled field trial Brazil, post-emergence, BRAPL; details: 100=total damage, 0=no damage; for BRAPL 9DAA Observed: 9 days after application; for BRAPL 37 DAA Observed: 37 days after application
Procedure: as §4, §5, §3

[13] = system: Brachiaria plantaginea (BRAPL); test: B3 drilled field trial Brazil, post-emergence, BRAPL; details: Summer season, 28 days after application
Procedure: as §1, §2, §3

[14] = system: Brachiaria decumbens (BRADC); test: B3 drilled field trial Brazil, post-emergence, BRADC; details: 28 days after application
Procedure: as §1, §2, §3

CS(=O)(=O)c1ccc(C(=O)C2C(=O)CCCC2=O)c([N+](=O)[O-])c1 [Mesotrione, reference compound]
Observed damage (100=total damage to plant, 0=no damage) ([1]; Second season, 75 g ai/ha): 40 | Observed damage (100=total damage to plant, 0=no damage) ([1]; Second season, 125 g ai/ha): 70 | Observed damage (100=total damage to plant, 0=no damage) ([1]; Summer season, 75 g ai/ha): 50 | Observed damage (100=total damage to plant, 0=no damage) ([1]; Summer season, 125 g ai/ha): 72 | EPPHL 7DAA Observed ([2]; 75 g ai/ha): 30 | EPPHL 30 DAA Observed ([2]; 75 g ai/ha): 20 | EPPHL 7DAA Observed ([2]; 125 g ai/ha): 40 | EPPHL 30 DAA Observed ([2]; 125 g ai/ha): 35 | Observed damage (100=total damage to plant, 0=no damage) (Eleusine indica (ELEIN); Second season, 75 g ai/ha): 20 | Observed damage (100=total damage to plant, 0=no damage) (Eleusine indica (ELEIN); Second season, 125 g ai/ha): 50 | Observed damage (100=total damage to plant, 0=no damage) (Eleusine indica (ELEIN); Summer season, 75 g ai/ha): 53 | Observed damage (100=total damage to plant, 0=no damage) (Eleusine indica (ELEIN); Summer season, 125 g ai/ha): 58 | Observed damage (100=total damage to plant, 0=no damage) ([3]; Second season, 75 g ai/ha): 79 | Observed damage (100=total damage to plant, 0=no damage) ([3]; Second season, 125 g ai/ha): 87 | Observed damage (100=total damage to plant, 0=no damage) ([3]; Summer season, 75 g ai/ha): 63 | Observed damage (100=total damage to plant, 0=no damage) ([3]; Summer season, 125 g ai/ha): 96 | GLXMA 9DAA Observed ([4]; 75 g ai/ha): 45 | GLXMA 37 DAA Observed ([4]; 75 g ai/ha): 65 | GLXMA 9DAA Observed ([4]; 125 g ai/ha): 55 | GLXMA 37 DAA Observed ([4]; 125 g ai/ha): 88 | AMAVI 7DAA Observed ([5]; 75 g ai/ha): 25 | AMAVI 30 DAA Observed ([5]; 75 g ai/ha): 30 | AMAVI 7DAA Observed ([5]; 125 g ai/ha): 65 | AMAVI 30 DAA Observed ([5]; 125 g ai/ha): 50 | Observed damage (100=total damage to plant, 0=no damage) ([6]; Second season, 75 g ai/ha): 0 | Observed damage (100=total damage to plant, 0=no damage) ([6]; Second season, 125 g ai/ha): 0 | Observed damage (100=total damage to plant, 0=no damage) ([6]; Summer season, 75 g ai/ha): 0 | Observed damage (100=total damage to plant, 0=no damage) ([6]; Summer season, 125 g ai/ha): 0 | Observed damage (100=total damage to plant, 0=no damage) ([7]; 75 g ai/ha): 40 | Observed damage (100=total damage to plant, 0=no damage) ([7]; 125 g ai/ha): 58 | Observed damage (100=total damage to plant, 0=no damage) ([8]; Second season, 75 g ai/ha): 83 | Observed damage (100=total damage to plant, 0=no damage) ([8]; Second season, 125 g ai/ha): 89 | Observed damage (100=total damage to plant, 0=no damage) ([8]; Summer season, 75 g ai/ha): 69 | Observed damage (100=total damage to plant, 0=no damage) ([8]; Summer season, 125 g ai/ha): 92 | BIDPI 7DAA Observed (Bidens pilosa (BIDPI) [9]; 75 g ai/ha): 28 | BIDPI 30 DAA Observed (Bidens pilosa (BIDPI) [9]; 75 g ai/ha): 28 | BIDPI 7DAA Observed (Bidens pilosa (BIDPI) [9]; 125 g ai/ha): 40 | BIDPI 30 DAA Observed (Bidens pilosa (BIDPI) [9]; 125 g ai/ha): 40 | AMARE Second season Observed ([10]; 75 g ai/ha): 40 | AMARE Summer season Observed ([10]; 75 g ai/ha): 73 | AMARE Second season Observed ([10]; 125 g ai/ha): 54 | AMARE Summer season Observed ([10]; 125 g ai/ha): 85 | Observed damage (100=total damage to plant, 0=no damage) (Bidens pilosa (BIDPI) [11]; Second season, 75 g ai/ha): 68 | Observed damage (100=total damage to plant, 0=no damage) (Bidens pilosa (BIDPI) [11]; Second season, 125 g ai/ha): 70 | Observed damage (100=total damage to plant, 0=no damage) (Bidens pilosa (BIDPI) [11]; Summer season, 75 g ai/ha): 53 | Observed damage (100=total damage to plant, 0=no damage) (Bidens pilosa (BIDPI) [11]; Summer season, 125 g ai/ha): 74 | BRAPL 9DAA Observed ([12]; 75 g ai/ha): 53 | BRAPL 37 DAA Observed ([12]; 75 g ai/ha): 7 | BRAPL 9DAA Observed ([12]; 125 g ai/ha): 65 | BRAPL 37 DAA Observed ([12]; 125 g ai/ha): 0 | Observed damage (100=total damage to plant, 0=no damage) ([13]; 75 g ai/ha): 15 | Observed damage (100=total damage to plant, 0=no damage) ([13]; 125 g ai/ha): 28 | Observed damage (100=total damage to plant, 0=no damage) ([14]; Second season, 75 g ai/ha): 10 | Observed damage (100=total damage to plant, 0=no damage) ([14]; Second season, 125 g ai/ha): 13 | Observed damage (100=total damage to plant, 0=no damage) ([14]; Summer season, 75 g ai/ha): 48 | Observed damage (100=total damage to plant, 0=no damage) ([14]; Summer season, 125 g ai/ha): 50
